Reference: patent EP4745153A1, “GLP-1, GIP AND GCG RECEPTOR […] USE THEREOF” (Jiangsu Hengrui Pharmaceuticals Co., Ltd., priority 2023, dated 2025)
Starred links: 1 amine or outer side, 2 acyl side, 3 side chain; linkers in the order of their positions; H or OH if unused. Non-standard residues stand in square brackets, D forms with d. Residues, ends and D or L forms follow the SMILES beside them. Groups on a side chain read outwards from the residue. No end group written: not given here. *: point of attachment. C20 diacid = O=C(O)CCCCCCCCCCCCCCCCCCC(=O)*; γGlu = O=C(O)[C@H](CCC(=O)[*:2])N[*:1]; αMeL = CC(C)C[C@](C)(N)C(=O)O; αMeK = C[C@](N)(CCCCN)C(=O)O; αMeS = C[C@](N)(CO)C(=O)O; AEEA = NCCOCCOCC(=O)O; αS = not defined here; Aib = CC(C)(N)C(=O)O

Legend:
[1] = Physical stability of solution in the vehicle; type: physicochemical; settings: incubation at 25 degrees Celsius for 28 days; stated in the description, no method given
[2] = target: T1, human GIPR (Homo sapiens, UniProt P48546); assay: cAMP HTRF agonist activity assay in CHO-K1 cells expressing GIPR; type: cell-based
T1 construct: expressed in transfected cells; host or cells: CHO-K1 clonal cell line
T1 sequence (P48546 22-466): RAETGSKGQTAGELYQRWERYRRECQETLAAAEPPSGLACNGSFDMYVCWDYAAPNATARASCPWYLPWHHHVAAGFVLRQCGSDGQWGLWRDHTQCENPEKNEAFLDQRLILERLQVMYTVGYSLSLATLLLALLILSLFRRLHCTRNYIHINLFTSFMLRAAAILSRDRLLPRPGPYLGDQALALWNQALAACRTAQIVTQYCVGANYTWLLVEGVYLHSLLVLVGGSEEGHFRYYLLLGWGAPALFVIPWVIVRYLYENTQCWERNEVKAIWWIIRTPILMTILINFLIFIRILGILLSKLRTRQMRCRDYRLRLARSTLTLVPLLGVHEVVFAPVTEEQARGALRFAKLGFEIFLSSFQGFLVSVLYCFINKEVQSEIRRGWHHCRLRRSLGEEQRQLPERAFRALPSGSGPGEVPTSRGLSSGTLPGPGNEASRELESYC
Method in brief: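 cAMP accumulation measured by competitive HTRF after 30 min incubation of polypeptides with 5000 receptor-expressing CHO-K1 cells/well at 37°C. Percent of maximal response versus concentration fitted to a four-parameter logistic to give relative EC50.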

[3] = Pharmacokinetics in mice after single intravenous injection; parameters: species or system C57 mice; settings: mouse, in vivo, male C57 mice, single intravenous dose 200 nmol/kg, plasma
Method in brief: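 Plasma concentrations were measured by positive-mode ESI LC-MS/MRM, with verapamil as internal standard, at time points from 5 min to 72 h. Samples came from three male C57 mice per compound, aged 4-6 weeks, dosed once intravenously with 200 nmol/kg in 1×PBS; PK parameters were derived with PKSolver.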

[4] = Solubility in the vehicle; type: physicochemical; settings: stated in the summary only, no test example

Compound	appearance of the solution in the vehicle [1]	EC50 [2] [pM]	AUC(0-inf) [3] [µM·h]	C0 [3] [µM]	clearance ([3]; read-out: CLp) [mL/h/kg]	half-life ([3]; read-out: T1/2 (converted)) [h]	solubility in the vehicle [4] [mg/mL]
H-Aib-HGTFTSDYSI-αL-LE-K(-OEG-OEG-γGlu-C(O)-(CH2)18-COOH)-KAAQEFVEWLLAGGPSSGAPPPS-NH2 (H[Aib]HGTFTSDYSI[αMeL]LEK([AEEA-AEEA-γGlu-C20 diacid])KAAQEFVEWLLAGGPSSGAPPPS-NH2; N-terminus assumed; SMILES CC[C@H](C)[C@H](NC(=O)[C@H](CO)NC(=O)[C@H](Cc1ccc(O)cc1)NC(=O)[C@H](CC(=O)O)NC(=O)[C@H](CO)NC(=O)[C@@H](NC(=O)[C@H](Cc1ccccc1)NC(=O)[C@@H](NC(=O)CNC(=O)[C@H](Cc1c[nH]cn1)NC(=O)C(C)(C)NC(=O)[C@@H](N)Cc1c[nH]cn1)[C@@H](C)O)[C@@H](C)O)C(=O)N[C@@](C)(CC(C)C)C(=O)N[C@@H](CC(C)C)C(=O)N[C@@H](CCC(=O)O)C(=O)N[C@@H](CCCCNC(=O)COCCOCCNC(=O)COCCOCCNC(=O)CC[C@H](NC(=O)CCCCCCCCCCCCCCCCCCC(=O)O)C(=O)O)C(=O)N[C@@H](CCCCN)C(=O)N[C@@H](C)C(=O)N[C@@H](C)C(=O)N[C@@H](CCC(N)=O)C(=O)N[C@@H](CCC(=O)O)C(=O)N[C@@H](Cc1ccccc1)C(=O)N[C@H](C(=O)N[C@@H](CCC(=O)O)C(=O)N[C@@H](Cc1c[nH]c2ccccc12)C(=O)N[C@@H](CC(C)C)C(=O)N[C@@H](CC(C)C)C(=O)N[C@@H](C)C(=O)NCC(=O)NCC(=O)N1CCC[C@H]1C(=O)N[C@@H](CO)C(=O)N[C@@H](CO)C(=O)NCC(=O)N[C@@H](C)C(=O)N1CCC[C@H]1C(=O)N1CCC[C@H]1C(=O)N1CCC[C@H]1C(=O)N[C@@H](CO)C(N)=O)C(C)C) [Compound 0125]	remains clear and transparent						
CC[C@H](C)[C@H](NC(=O)[C@H](CC(C)C)NC(=O)[C@H](Cc1c[nH]c2ccccc12)NC(=O)[C@H](CCC(=O)O)NC(=O)[C@@H](NC(=O)[C@H](Cc1ccccc1)NC(=O)[C@H](CCC(=O)O)NC(=O)[C@](C)(CO)NC(=O)[C@H](C)NC(=O)[C@H](C)NC(=O)[C@H](CCCCN)NC(=O)[C@H](CCCCNC(=O)COCCOCCNC(=O)COCCOCCNC(=O)CC[C@H](NC(=O)CCCCCCCCCCCCCCCCCCC(=O)O)C(=O)O)NC(=O)[C@H](CCC(=O)O)NC(=O)[C@H](CC(C)C)NC(=O)[C@H](CC(C)C)NC(=O)[C@](C)(CCCCN)NC(=O)[C@H](CO)NC(=O)[C@H](Cc1ccc(O)cc1)NC(=O)[C@H](CC(=O)O)NC(=O)[C@H](CO)NC(=O)[C@@H](NC(=O)[C@H](Cc1ccccc1)NC(=O)[C@@H](NC(=O)CNC(=O)[C@H](Cc1c[nH]cn1)NC(=O)C(C)(C)NC(=O)[C@@H](N)Cc1c[nH]cn1)[C@@H](C)O)[C@@H](C)O)C(C)C)C(=O)N[C@@H](CCC(=O)O)C(=O)NCC(=O)NCC(=O)N1CCC[C@H]1C(=O)N[C@@H](CO)C(=O)N[C@@H](CO)C(=O)NCC(=O)N[C@@H](C)C(=O)N1CCC[C@H]1C(=O)N1CCC[C@H]1C(=O)N1CCC[C@H]1C(=O)N[C@@H](CO)C(N)=O [Compound 0126] (H-H[Aib]HGTFTSDYS[αMeK]LLEK([AEEA-AEEA-γGlu-C20 diacid])KAA[αMeS]EFVEWLIEGGPSSGAPPPS-NH2)		2	103	7.17	1.98	10.1	≥ 20
H-Aib-HGTFTSDYS-αK-LLE-K(-OEG-OEG-γGlu-C(O)-(CH2)18-COOH)-KAA-αS-EFVEWLIEGGPSSGAPPPS-NH2 (H[Aib]HGTFTSDYS[αMeK]LLEK([AEEA-AEEA-γGlu-C20 diacid])KAA[αS]EFVEWLIEGGPSSGAPPPS-NH2; reading uncertain; also: printed as H-Aib-HGTFTSDYS-αK-LLE-K(-OEG-OEG-γGlu-C(O)-(CH2)18-COOH)-KAA-αS-EFVEWLIEGGPSSGAPPPS-NH2) [Compound 0126]	remains clear and transparent						
